Tests used:
[1] = AUClast in Sprague-Dawley rat at 1 mg/kg, iv measured upto 24 hrs by LC-MS/MS analysis; type: ADME, organism-based; parameters: dose 1 mg/kg, time < 24 hrs, route iv; details: in vivo
[2] = Oral bioavailability in Sprague-Dawley rat at 10 mg/kg administered as solution measured upto 24 hrs by LC-MS/MS analysis; type: ADME, organism-based; details: in vivo
[3] = Effect on parathyroid hormone in overnight fasted Sprague-Dawley rat assessed as reduction in plasma PTH level at 10 mg/kg, po measured after 2 hrs of post treatment by sandwich ELISA analysis; type: functional; parameters: scale not given: the % may be the effect or the level left
[4] = Effect on parathyroid hormone in overnight fasted Sprague-Dawley rat assessed as reduction in plasma PTH level at 3 mg/kg, po measured after 2 hrs of post treatment by sandwich ELISA analysis; type: functional; parameters: scale not given: the % may be the effect or the level left
[5] = tested on: Rattus norvegicus; assay: Acute effect on parathyroid hormone in overnight fasted adenine diet-induced chronic kidney disease Wistar rat model assessed as reduction in plasma PTH level at 10 mg/kg, po measured after 2 hrs of post treatment by sandwich ELISA analysis; type: functional; parameters: scale not given: the % may be the effect or the level left
[6] = tested on: Rattus norvegicus; assay: Acute effect on parathyroid hormone in overnight fasted adenine diet-induced chronic kidney disease Wistar rat model plasma assessed as reduction in plasma PTH level at 1 mg/kg, po measured after 4 hrs of post treatment by sandwich ELISA analysis; type: functional; parameters: scale not given: the % may be the effect or the level left
[7] = tested on: Rattus norvegicus; assay: Subchronic effect on parathyroid hormone in overnight fasted adenine diet-induced chronic kidney disease Wistar rat model plasma assessed as reduction in plasma PTH level at 1 mg/kg, po qd measured after 27 days of post treatment by sandwich ELISA analysis; type: functional; parameters: scale not given: the % may be the effect or the level left; details: time 27 day
[8] = Tmax in Sprague-Dawley rat at 10 mg/kg; type: ADME, organism-based; details: in vivo
[9] = AUC(0 to 24 hrs) in Sprague-Dawley rat at 10 mg/kg; type: ADME, organism-based; parameters: dose 10 mg/kg; details: in vivo
[10] = Metabolic stability in human liver cytosol measured upto 60 mins by LC-MS/MS method; type: ADME, subcellular; details: read-out: Stability
[11] = Stability in mouse plasma measured up to 4 hrs by LC-MS/MS method; type: ADME, cell-free; details: read-out: Stability
[12] = Stability in human liver microsomes assessed as parent compound remaining measured after 60 mins in presence of NADPH by LC-MS/MS analysis; type: ADME, Microsome; details: read-out: Stability
[13] = target: T1, Cytochrome P450 2A6 (Homo sapiens, UniProt P11509); assay: Inhibition of CYP2A6 in human liver microsomes preincubated for 5 mins followed by NADPH addition by LC-MS/MS analysis; type: ADME, Microsome
T1 sequence (P11509 whole entry): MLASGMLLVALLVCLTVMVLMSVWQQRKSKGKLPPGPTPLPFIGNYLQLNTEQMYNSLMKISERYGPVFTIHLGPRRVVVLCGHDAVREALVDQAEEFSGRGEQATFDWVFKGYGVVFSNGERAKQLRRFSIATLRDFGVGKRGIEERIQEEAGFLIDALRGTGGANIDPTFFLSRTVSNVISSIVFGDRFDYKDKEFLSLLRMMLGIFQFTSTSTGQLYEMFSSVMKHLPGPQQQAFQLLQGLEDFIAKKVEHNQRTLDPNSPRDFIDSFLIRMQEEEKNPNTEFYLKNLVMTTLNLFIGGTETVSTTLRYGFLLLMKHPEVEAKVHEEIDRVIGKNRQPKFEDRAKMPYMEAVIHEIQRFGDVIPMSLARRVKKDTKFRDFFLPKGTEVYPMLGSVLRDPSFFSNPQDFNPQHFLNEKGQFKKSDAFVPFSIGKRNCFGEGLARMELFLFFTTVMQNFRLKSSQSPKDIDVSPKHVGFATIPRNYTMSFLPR

[14] = Efflux ratio of apparent permeability across basolateral to apical over apical to basolateral membrane in human Caco-2 cells at 5 uM measured after 120 mins by LC-MS/MS analysis; type: ADME, cell-based
[15] = Chemical stability of the compound in FeSSIF measured after 0.5 to 4 hrs; type: physicochemical; details: simulated gi fluid; time 0.5-4 hrs
[16] = Oral bioavailability in Beagle dog at 5 mg/kg measured upto 24 hrs by LC/MS-MS analysis; type: ADME, organism-based, Canis lupus familiaris; details: in vivo
[17] = Oral bioavailability in cynomolgus monkey at 5 mg/kg measured upto 24 hrs by LC/MS-MS analysis; type: ADME, organism-based, Macaca fascicularis; details: in vivo
[18] = Plasma clearance in Beagle dog at 1 mg/kg, iv measured upto 24 hrs by LC/MS-MS analysis; type: ADME, organism-based, Canis lupus familiaris
[19] = Plasma clearance in cynomolgus monkey at 1 mg/kg, iv measured upto 24 hrs by LC/MS-MS analysis; type: ADME, organism-based, Macaca fascicularis
[20] = Volume of distribution at steady state in BALB/c mouse at 1 mg/kg, iv measured upto 24 hrs by LC/MS-MS analysis; type: ADME, organism-based; details: in vivo, read-out: Vdss
[21] = Volume of distribution at steady state in Sprague-Dawley rat at 1 mg/kg, iv measured upto 24 hrs by LC/MS-MS analysis; type: ADME, organism-based; details: in vivo, read-out: Vdss
[22] = Half life in Sprague-Dawley rat at 1 mg/kg, iv measured upto 24 hrs by LC/MS-MS analysis; type: ADME, organism-based; details: in vivo
[23] = Half life in Beagle dog at 1 mg/kg, iv measured upto 24 hrs by LC/MS-MS analysis; type: ADME, organism-based, Canis lupus familiaris; details: in vivo
[24] = Tmax in BALB/c mouse at 10 mg/kg, po measured upto 24 hrs by LC/MS-MS analysis; type: ADME, organism-based; details: in vivo
[25] = Tmax in Beagle dog at 5 mg/kg, po measured upto 24 hrs by LC/MS-MS analysis; type: ADME, organism-based, Canis lupus familiaris; details: in vivo
[26] = Tmax in cynomolgus monkey at 5 mg/kg, po measured upto 24 hrs by LC/MS-MS analysis; type: ADME, organism-based, Macaca fascicularis; details: in vivo
[27] = Cmax in BALB/c mouse at 10 mg/kg, po measured upto 24 hrs by LC/MS-MS analysis; type: ADME, organism-based; parameters: dose 10 mg/kg, time < 24 hrs, route po; details: in vivo
[28] = AUC in BALB/c mouse at 10 mg/kg, po measured upto 24 hrs by LC/MS-MS analysis; type: ADME, organism-based; parameters: time < 24 hrs, dose 10 mg/kg, route po; details: in vivo
[29] = AUC in Beagle dog at 5 mg/kg, po measured upto 24 hrs by LC/MS-MS analysis; type: ADME, organism-based, Canis lupus familiaris; parameters: dose 5 mg/kg, time < 24 hrs, route po; details: in vivo
[30] = Drug excretion in BALB/c mouse assessed as drug recovery in urine at 1 mg/kg, iv; type: ADME, organism-based; details: read-out: Drug recovery
[31] = Drug excretion in rat assessed as drug recovery in urine at 1 mg/kg, iv; type: ADME, organism-based; details: read-out: Drug recovery
[32] = Drug excretion in rat assessed as drug recovery in urine at 10 mg/kg, po; type: ADME, organism-based; details: read-out: Drug recovery
[33] = Ratio of drug concentration in blood to thyroid in Sprague-Dawley rat at 10 mg/kg, po measured upto 24 hrs by LC-MS/MS analysis; type: ADME, organism-based; details: in vivo
[34] = AUC(0 to t) in rat at 25 mg/kg per day, po via gavage administered for 13 weeks; type: ADME, organism-based; parameters: dose 25 mg/kg, time 13 weeks, route po; details: in vivo
[35] = Cmax in mouse at 50 mg/kg per day, po via gavage administered for 13 weeks; type: ADME, organism-based; parameters: time 13 weeks, dose 50 mg/kg, route po; details: in vivo
[36] = AUC in mouse at 50 mg/kg per day, po via gavage administered for 13 weeks; type: ADME, organism-based; parameters: dose 50 mg/kg, time 13 weeks, route po; details: in vivo
[37] = Cmax in human at 25 mg/kg, po administered as single dose; type: ADME, organism-based; parameters: dose 25 mg/kg, route po; details: in vivo
[38] = Genotoxicity in Salmonella typhimurium by Ames test; type: toxicity; details: salmonella enterica subsp. enterica serovar typhimurium
[39] = target: Mu-type opioid receptor (Homo sapiens) (UniProt P35372); assay: Inhibition of human recombinant MOP receptor at 10 uM relative to control
Sequence of Mu-type opioid receptor (Homo sapiens) (P35372 whole entry): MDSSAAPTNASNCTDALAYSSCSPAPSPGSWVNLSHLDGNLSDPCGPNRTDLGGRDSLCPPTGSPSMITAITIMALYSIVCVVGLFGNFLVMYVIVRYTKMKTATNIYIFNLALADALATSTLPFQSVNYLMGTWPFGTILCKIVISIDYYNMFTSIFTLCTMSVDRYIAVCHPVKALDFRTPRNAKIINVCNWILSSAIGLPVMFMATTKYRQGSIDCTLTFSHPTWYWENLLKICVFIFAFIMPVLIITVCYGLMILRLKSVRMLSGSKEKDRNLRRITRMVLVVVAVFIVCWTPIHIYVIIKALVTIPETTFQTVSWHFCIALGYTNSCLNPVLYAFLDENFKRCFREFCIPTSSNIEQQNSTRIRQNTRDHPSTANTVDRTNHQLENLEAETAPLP

Molecule `Cc1ccc([C@@H]2C[C@H](CN[C@H](C)c3cccc4ccccc34)Oc3ccccc32)cc1C(=O)O.Cl` has an AUC(0-t) at 24 h [1] of 7 µM·h, a bioavailability [2] of 99% and an Activity [3] of 99%. For the same molecule, the Activity [4] was 100%, the Activity [5] was 89% and the Activity [6] was 84%. It also gave an Activity [7] of 83%, a Tmax [8] of 1 h and an AUC(0-t) [9] of 23 µM·h. The remaining at 1 h [10] was > 80%, the remaining at 4 h [11] was > 80% and the remaining at 1 h [12] was ~30%. The IC50 [13] was 41 µM, the efflux ratio at 2 h, 5 µM [14] was 0.3 and the Stability [15] was “Stable”. It also gave a bioavailability [16] of 79%, a bioavailability [17] of 100% and a clearance [18] of 2 mL/min/kg. For the same molecule, the clearance [19] was 151 mL/min/kg, the Vd [20] was 0.6 L/kg and the Vd [21] was 1 L/kg. For the same molecule, the half-life [22] was 4 h, the half-life [23] was 5 h and the Tmax [24] was 0.25 h. For the same molecule, the Tmax [25] was 0.7 h, the Tmax [26] was 1.7 h and the Cmax [27] was 31 µM. The AUC at 24 h [28] was 171 µM·h, the AUC at 24 h [29] was 63 µM·h and the dose excreted [30] was < 1%. The dose excreted [31] was < 1%, the dose excreted [32] was < 1% and the Ratio [33] was 0.3. The AUC(0-t) at 2184 h [34] was 98.9 µg·h/mL, the Cmax [35] was 34800 ng/mL and the AUC at 2184 h [36] was 321 µg·h/mL. For the same molecule, the Cmax [37] was 367 ng/mL, the Activity [38] was “Non-Toxic” and the inhibition [39] was > 50%.
